# Measured values: patent publication US20260327628A1, “AN RNA APTAMER THAT BINDS TO ASP7967 OR AN ANALOGUE THEREOF” (priority 2022, published 2026)
# Entries after “also recorded” stand apart in the source; their conditions may differ.
# How the values were obtained:
# [1] = test system: hEPO secretion from HEK293 cells; assay: In vitro hEPO assay (ELISA), AAV vector plasmids in HEK293 cells; assay type: cell-based, human
# Protocol: For the hEPO ELISA assay in FIG. 9b, HEK293 cells were trypsinized and diluted to 2.0×10^5 cells ml^−1 and 100 μl per well were seeded onto a 96-well collagen plate. Cells in each well were transfected with 100 ng of the pAAV-CMV-hEPO-p3-d pAAV-CMV-hEPO-control, pAAV-MCS-based plasmids encoding human EPO with or without CPP-a8c-AC17-4 riboswitch using 0.3 μl of TransIT-293 Transfection Reagent according to the manufacturer's instructions. The medium in each well was replaced with fresh medium with (up to 10 μM) or without ASP7967 5 h after transfection. At 24 h after transfection, the medium in each well was collected and stored at −20° C. To measure hEPO concentrations, the medium was diluted 50-fold by PBS and further diluted 50-fold by the specimen diluent buffer included in the ELISA kit. The diluted samples were measured using Human Erythropoietin/EPO Quantikine ELISA Kit (R&D systems, Inc.) and Infinite M200 PRO microplate reader (TECAN).
# Then, a8c-AC17-4-CPP was inserted into the 3′ UTR region of hEPO gene expressed from the CMV promoter in a plasmid containing AAV2 inverted terminal repeats (ITR) (pAAV-CMV-hEPO-a8c-AC17-4-CPP) (FIG. 9a). The plasmid pAAV-CMV-hEPO-a8c-AC17-4-CPP was transfected into HEK293 cells in the absence or presence (0.1~10 μM) of ASP7967. Two days after transfection, hEPO concentrations in the culture medium were measured by ELISA. […]
# [2] = test system: potassium channel Kv12.2 encoded by the Kcnh3/BEC1 gene; settings: cited from earlier work
# [3] = in vivo; cited from earlier work
# AC17-4 RNA aptamer = assay: Affinity measurement by ITC, AC17-4; assay type: binding; settings: 37 °C
# Protocol: ITC experiments were carried out as described previously^26 with some modifications. Template DNA for in vitro transcription was prepared by primer extension using Q5 High-Fidelity DNA Polymerase. AC17-4 RNA aptamer (5′-[…]-3′ (SEQ ID NO: 50)) was prepared using HiScribe T7 High Yield RNA Synthesis Kit (NEB) according to the manufacturer's instructions. The transcription product (100 μl) was treated with 2 U TURBO DNase at 37° C. for 30 min. The RNA was precipitated with ammonium acetate and ethanol and dissolved in water. The solution was further extracted with phenol-chloroform and ethanol precipitated. The RNA was purified by denaturing polyacrylamide gel electrophoresis (PAGE) and the main band was extracted from the gel with TE buffer (10 mM Tris-HCl, pH 7.0, 0.1 mM EDTA). […] RNA concentration was determined by absorbance at 260 nm according to OligoCalc. […]
# Titration was performed at 37° C. using MicroCal PEAQ-ITC (Malvern). […] Raw data were analysed by MicroCal PEAQ-ITC analysis software ver. […]
# Conventional SELEX requires immobilization of the target molecule on solid phase on which an RNA pool containing randomized sequences are applied. […] The sequences enriched during the SELEX experiment were analyzed by high-throughput (Illumina) sequencing. […]
Kd (AC17-4 RNA aptamer) [nM],SMILES,"hEPO level in medium relative to control plasmid ([1]; 10 μM ASP7967, pAAV-CMV-hEPO-a8c-AC17-4-CPP) [%]","fold induction at 10 µM ([1]; Homo sapiens, HEK293, 24 h, read-out: induction of hEPO)",inhibition of Kv12.2 (KCNH3) in words [2],antipsychotic activities [3]
,Fc1ccc(Nc2nc(NCc3ncccn3)nc(Nc3ccc(F)cc3)n2)cc1 [ASP7967],29,10,,
48,"Fc1ccc(Nc2nc(NCc3ncccn3)nc(Nc3ccccc3)n2)cc1 [ASP2905, reference compound]",,,potent and selective inhibitor; also recorded: known inhibitor,has antipsychotic activities
